Measurements as given in patent publication US10550124B2, “Atropisomerism for increased kinase inhibitor selectivity” (SAN DIEGO STATE UNIVERSITY RESEARCH FOUNDATION, priority 2015, dated 2020).

Columns and labels:
Assay type in all cases: biochemical
Abl = Abl (Homo sapiens, UniProt P00519); experiment: Z′-LYTE kinase inhibition assay, Abl; conditions: for % inhibition: average of 2 runs
Description: (§1) All samples were sent out to Life Technologies to obtain kinase inhibition data. A brief description of the assays and analyses are included below.
(§2) Assay Theory (SelectScreen® Kinase Profiling Services (Life Technologies, Madison, Wis. USA). The Z′-LYTE® biochemical assay employs a fluorescence-based, coupled-enzyme format and is based on the differential sensitivity of phosphorylated and non-phosphorylated peptides to proteolytic cleavage. The peptide substrate is labeled with two fluorophores one at each end—that make up a FRET pair.
(§3) In the primary reaction, the kinase transfers the gamma-phosphate of ATP to a single tyrosine, serine or threonine residue in a synthetic FRET-peptide. In the secondary reaction, a site-specific protease recognizes and cleaves non-phosphorylated FRET-peptides.
(§4) Phosphorylation of FRET-peptides suppresses cleavage by the Development Reagent. Cleavage disrupts FRET between the donor (i.e., coumarin) and acceptor (i.e., fluorescein) fluorophores on the FRET-peptide, whereas uncleaved, phosphorylated FRET-peptides maintain FRET. A ratiometric method, which calculates the ratio (the Emission Ratio) of donor emission to acceptor emission after excitation of the donor fluorophore at 400 nm, is used to quantitate reaction progress, as shown in the equation below: […]
(§5) A significant benefit of this ratiometric method for quantitating reaction progress is the elimination of well-to-well variations in FRET-peptide concentration and signal intensities. As a result, the assay yields very high Z′-factor values (>0.7) at a low percent phosphorylation. Both cleaved and uncleaved FRET-peptides contribute to the fluorescence signals and therefore to the Emission Ratio. The extent of phosphorylation of the FRET-peptide can be calculated from the Emission Ratio. The Emission Ratio will remain low if the FRET-peptide is phosphorylated (i.e., no kinase inhibition) and will he high if the FRET-peptide is non-phosphorylated (i.e., kinase inhibition).

Alk = Alk (Homo sapiens, UniProt Q9UM73); experiment: Z′-LYTE kinase inhibition assay, Alk; conditions: average of 2 runs
Description: as §1, §2, §3, §4, §5

Hck = Hck (Homo sapiens, UniProt P08631); experiment: Z′-LYTE kinase inhibition assay, Hck; conditions: average of 2 runs
Description: as §1, §2, §3, §4, §5

pdgfr-b = pdgfr-b (Homo sapiens, UniProt P09619); experiment: Z′-LYTE kinase inhibition assay, pdgfr-b; conditions: average of 2 runs
Description: as §1, §2, §3, §4, §5

Ret = Ret (Homo sapiens, UniProt P07949); experiment: Z′-LYTE kinase inhibition assay, Ret; conditions: for % inhibition: average of 2 runs
Description: as §1, §2, §3, §4, §5

Her-2 = Her-2 (Homo sapiens, UniProt P04626); experiment: Z′-LYTE kinase inhibition assay, Her-2; conditions: average of 2 runs
Description: as §1, §2, §3, §4, §5

Fgr = Fgr (Homo sapiens, UniProt P09769); experiment: Z′-LYTE kinase inhibition assay, Fgr; conditions: average of 2 runs
Description: as §1, §2, §3, §4, §5

Fyn = Fyn (Homo sapiens, UniProt P06241); experiment: Z′-LYTE kinase inhibition assay, Fyn; conditions: average of 2 runs
Description: as §1, §2, §3, §4, §5

Src kinase = Src kinase (Homo sapiens, UniProt P12931); experiment: Z′-LYTE kinase inhibition assay, Src
Description: Based on the observed stereochemical stabilities, we chose 1f, 2e, and 2f for further study and obtained inhibition data against Src kinase from Life Technologies' Z′-LYTE™ kinase assay (Scheme 3).
as §1, §2, §3, §4, §5

pdgfr-a = pdgfr-a (Homo sapiens, UniProt P16234); experiment: Z′-LYTE kinase inhibition assay, pdgfr-a; conditions: average of 2 runs
Description: as §1, §2, §3, §4, §5

Kit = Kit (Homo sapiens, UniProt P10721); experiment: Z′-LYTE kinase inhibition assay, Kit; conditions: average of 2 runs
Description: as §1, §2, §3, §4, §5

BTK = BTK (Homo sapiens, UniProt Q06187); experiment: Z′-LYTE kinase inhibition assay, BTK; conditions: average of 2 runs
Description: as §1, §2, §3, §4, §5

[1] = system: panel of 18 tyrosine kinases; experiment: Kinase inhibitor profiling across a panel of tyrosine kinases (selectivity); conditions: for S(40%): number of kinases inhibited greater than 40% divided by number of kinases tested (including Src)
Experimental: In order to probe the effect of atropisomeric conformation on kinase selectivity we subjected 1f, 2e, and 2f to kinase inhibitor profiling across a panel of tyrosine kinases at 1000 nM and 5000 nM (data for 2e shown in Scheme 4 below).
To analyze each analog's selectivity across the panel we turned to selectivity scores (Davis et al., Nat. Biotechnol. 2011, 29, 1046-51), simply the number of kinases inhibited above a certain threshold divided by the number of kinases evaluated. […] For example at 1000 nM 2e-(R) yielded an S(40%) of 0.11 while 2e-(S) gave an S(40%) of 0.16. […] Differences in selectivity between 2e-(R) and 2e-(S) at 5000 nM (4.5 times the IC50 of 2e-(S) toward Src) and for 5 at 1000 nM (6.25 times the IC50 of 5 toward Src) can be viewed graphically across tyrosine kinases (FIG. 3). Importantly, similar trends were also observed across each of the atropisomeric series tested.
as §1, §2, §3, §4, §5

EGFR = EGFR (Homo sapiens, UniProt P00533); experiment: Z′-LYTE kinase inhibition assay, EGFR; conditions: for % inhibition: average of 2 runs
Description: as §1, §2, §3, §4, §5

Lyn = Lyn (Homo sapiens, UniProt P07948); experiment: Z′-LYTE kinase inhibition assay, Lyn; conditions: average of 2 runs
Description: as §1, §2, §3, §4, §5

CSK = CSK (Homo sapiens, UniProt P41240); experiment: Z′-LYTE kinase inhibition assay, CSK; conditions: average of 2 runs
Description: as §1, §2, §3, §4, §5

Lck = Lck (Homo sapiens, UniProt P06239); experiment: Z′-LYTE kinase inhibition assay, Lck; conditions: average of 2 runs
Description: as §1, §2, §3, §4, §5

Blk = Blk (Homo sapiens, UniProt P51451); experiment: Z′-LYTE kinase inhibition assay, Blk; conditions: average of 2 runs
Description: as §1, §2, §3, §4, §5

Yes = Yes (Homo sapiens, UniProt P07947); experiment: Z′-LYTE kinase inhibition assay, Yes
Description: as §1, §2, §3, §4, §5

Ret, sequence (P07949 29-1114): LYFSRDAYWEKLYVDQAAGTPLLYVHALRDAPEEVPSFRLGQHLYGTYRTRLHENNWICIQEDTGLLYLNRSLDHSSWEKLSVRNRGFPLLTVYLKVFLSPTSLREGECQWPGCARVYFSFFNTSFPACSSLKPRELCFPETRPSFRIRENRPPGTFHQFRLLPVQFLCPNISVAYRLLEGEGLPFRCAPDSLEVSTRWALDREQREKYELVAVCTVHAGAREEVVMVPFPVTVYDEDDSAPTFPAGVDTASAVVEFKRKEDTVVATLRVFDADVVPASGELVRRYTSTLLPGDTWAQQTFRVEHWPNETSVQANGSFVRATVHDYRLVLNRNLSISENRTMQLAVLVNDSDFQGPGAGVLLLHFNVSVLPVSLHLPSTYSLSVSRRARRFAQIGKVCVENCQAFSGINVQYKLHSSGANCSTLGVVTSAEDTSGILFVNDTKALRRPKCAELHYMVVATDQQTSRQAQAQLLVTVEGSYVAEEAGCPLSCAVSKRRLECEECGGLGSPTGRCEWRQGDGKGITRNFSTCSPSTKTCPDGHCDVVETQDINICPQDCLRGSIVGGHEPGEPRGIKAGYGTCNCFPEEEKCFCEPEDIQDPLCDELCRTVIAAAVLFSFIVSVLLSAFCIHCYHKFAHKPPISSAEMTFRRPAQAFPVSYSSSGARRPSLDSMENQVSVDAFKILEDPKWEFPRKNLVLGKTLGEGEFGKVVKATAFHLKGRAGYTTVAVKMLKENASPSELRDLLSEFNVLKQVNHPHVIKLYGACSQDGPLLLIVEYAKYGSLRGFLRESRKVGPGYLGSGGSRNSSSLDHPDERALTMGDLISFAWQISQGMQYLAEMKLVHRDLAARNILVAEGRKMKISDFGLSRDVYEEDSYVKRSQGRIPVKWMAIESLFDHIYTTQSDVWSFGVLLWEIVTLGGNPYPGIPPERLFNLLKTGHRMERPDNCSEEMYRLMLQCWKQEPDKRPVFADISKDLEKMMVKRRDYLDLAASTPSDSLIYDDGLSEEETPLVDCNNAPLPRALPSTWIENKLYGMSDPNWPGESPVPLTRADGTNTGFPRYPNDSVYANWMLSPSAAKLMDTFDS
Abl, sequence (P00519 whole entry): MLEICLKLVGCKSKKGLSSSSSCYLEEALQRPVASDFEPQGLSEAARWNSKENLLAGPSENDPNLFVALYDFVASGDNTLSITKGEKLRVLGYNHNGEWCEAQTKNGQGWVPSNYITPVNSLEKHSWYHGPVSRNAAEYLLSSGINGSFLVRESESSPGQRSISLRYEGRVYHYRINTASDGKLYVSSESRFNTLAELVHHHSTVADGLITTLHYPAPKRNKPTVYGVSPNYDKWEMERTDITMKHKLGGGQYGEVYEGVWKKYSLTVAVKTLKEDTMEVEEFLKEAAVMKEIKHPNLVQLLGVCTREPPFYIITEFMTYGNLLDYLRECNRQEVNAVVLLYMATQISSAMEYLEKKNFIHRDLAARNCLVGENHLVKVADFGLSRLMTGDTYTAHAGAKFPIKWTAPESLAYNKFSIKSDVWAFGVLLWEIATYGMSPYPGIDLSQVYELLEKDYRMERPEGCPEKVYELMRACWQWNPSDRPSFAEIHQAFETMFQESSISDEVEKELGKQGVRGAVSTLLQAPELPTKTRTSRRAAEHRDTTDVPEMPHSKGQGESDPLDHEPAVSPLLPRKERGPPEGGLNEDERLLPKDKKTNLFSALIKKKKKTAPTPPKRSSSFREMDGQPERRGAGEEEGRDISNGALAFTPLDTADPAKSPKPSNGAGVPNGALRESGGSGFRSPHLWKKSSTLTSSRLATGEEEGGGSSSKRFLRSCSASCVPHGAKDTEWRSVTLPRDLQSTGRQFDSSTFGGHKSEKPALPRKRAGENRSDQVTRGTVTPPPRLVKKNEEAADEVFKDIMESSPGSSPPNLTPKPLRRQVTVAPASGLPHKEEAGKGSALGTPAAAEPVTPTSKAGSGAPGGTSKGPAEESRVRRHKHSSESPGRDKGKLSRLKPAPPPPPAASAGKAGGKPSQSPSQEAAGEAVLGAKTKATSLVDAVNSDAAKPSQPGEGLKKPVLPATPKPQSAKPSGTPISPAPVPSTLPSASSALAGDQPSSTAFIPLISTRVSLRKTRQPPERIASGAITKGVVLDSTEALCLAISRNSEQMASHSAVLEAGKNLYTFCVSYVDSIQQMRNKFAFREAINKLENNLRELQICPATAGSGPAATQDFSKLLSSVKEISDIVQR
Yes, sequence (P07947 whole entry): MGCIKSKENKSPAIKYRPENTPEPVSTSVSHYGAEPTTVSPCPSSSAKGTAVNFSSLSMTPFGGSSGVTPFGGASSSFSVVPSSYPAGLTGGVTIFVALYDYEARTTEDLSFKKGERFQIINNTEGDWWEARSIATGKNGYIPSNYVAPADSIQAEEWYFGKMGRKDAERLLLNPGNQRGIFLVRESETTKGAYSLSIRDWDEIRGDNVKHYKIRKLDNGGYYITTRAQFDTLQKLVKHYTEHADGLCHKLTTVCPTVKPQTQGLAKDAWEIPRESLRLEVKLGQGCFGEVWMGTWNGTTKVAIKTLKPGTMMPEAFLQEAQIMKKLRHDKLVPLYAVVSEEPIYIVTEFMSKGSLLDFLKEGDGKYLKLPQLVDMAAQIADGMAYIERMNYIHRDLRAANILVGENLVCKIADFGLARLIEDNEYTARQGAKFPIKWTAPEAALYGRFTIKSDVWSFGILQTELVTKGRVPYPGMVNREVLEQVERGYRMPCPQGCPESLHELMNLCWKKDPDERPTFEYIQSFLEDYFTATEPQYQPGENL
EGFR, sequence (P00533 25-1210): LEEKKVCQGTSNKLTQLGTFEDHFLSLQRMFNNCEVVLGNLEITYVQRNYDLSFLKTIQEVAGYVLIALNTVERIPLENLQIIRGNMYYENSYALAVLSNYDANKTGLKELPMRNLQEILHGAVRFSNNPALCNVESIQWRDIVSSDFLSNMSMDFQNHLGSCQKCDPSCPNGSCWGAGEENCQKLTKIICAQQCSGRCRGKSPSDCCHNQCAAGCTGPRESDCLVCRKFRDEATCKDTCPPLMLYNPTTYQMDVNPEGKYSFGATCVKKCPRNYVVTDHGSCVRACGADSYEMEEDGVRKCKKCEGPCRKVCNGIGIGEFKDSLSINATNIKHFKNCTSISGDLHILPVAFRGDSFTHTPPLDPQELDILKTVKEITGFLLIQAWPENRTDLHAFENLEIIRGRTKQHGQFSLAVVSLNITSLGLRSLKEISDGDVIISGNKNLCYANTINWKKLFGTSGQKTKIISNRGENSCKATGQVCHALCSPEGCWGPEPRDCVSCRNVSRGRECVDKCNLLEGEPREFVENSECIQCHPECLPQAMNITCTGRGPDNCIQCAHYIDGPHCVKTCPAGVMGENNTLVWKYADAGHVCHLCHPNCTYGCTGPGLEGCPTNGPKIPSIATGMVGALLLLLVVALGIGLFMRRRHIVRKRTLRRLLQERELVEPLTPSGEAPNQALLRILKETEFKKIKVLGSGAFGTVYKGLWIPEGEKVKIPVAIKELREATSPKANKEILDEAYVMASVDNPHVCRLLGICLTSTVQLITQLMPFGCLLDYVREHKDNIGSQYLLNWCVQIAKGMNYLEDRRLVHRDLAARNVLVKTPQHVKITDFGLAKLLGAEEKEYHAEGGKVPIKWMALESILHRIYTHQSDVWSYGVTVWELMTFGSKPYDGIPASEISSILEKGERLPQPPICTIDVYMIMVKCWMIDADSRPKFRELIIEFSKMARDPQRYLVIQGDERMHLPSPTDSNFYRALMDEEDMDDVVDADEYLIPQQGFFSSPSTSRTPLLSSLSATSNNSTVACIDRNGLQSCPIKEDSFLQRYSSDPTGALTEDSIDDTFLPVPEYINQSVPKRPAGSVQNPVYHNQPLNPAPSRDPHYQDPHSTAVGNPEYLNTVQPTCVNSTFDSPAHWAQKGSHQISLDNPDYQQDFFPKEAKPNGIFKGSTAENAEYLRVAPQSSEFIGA
Kit, sequence (P10721 26-976): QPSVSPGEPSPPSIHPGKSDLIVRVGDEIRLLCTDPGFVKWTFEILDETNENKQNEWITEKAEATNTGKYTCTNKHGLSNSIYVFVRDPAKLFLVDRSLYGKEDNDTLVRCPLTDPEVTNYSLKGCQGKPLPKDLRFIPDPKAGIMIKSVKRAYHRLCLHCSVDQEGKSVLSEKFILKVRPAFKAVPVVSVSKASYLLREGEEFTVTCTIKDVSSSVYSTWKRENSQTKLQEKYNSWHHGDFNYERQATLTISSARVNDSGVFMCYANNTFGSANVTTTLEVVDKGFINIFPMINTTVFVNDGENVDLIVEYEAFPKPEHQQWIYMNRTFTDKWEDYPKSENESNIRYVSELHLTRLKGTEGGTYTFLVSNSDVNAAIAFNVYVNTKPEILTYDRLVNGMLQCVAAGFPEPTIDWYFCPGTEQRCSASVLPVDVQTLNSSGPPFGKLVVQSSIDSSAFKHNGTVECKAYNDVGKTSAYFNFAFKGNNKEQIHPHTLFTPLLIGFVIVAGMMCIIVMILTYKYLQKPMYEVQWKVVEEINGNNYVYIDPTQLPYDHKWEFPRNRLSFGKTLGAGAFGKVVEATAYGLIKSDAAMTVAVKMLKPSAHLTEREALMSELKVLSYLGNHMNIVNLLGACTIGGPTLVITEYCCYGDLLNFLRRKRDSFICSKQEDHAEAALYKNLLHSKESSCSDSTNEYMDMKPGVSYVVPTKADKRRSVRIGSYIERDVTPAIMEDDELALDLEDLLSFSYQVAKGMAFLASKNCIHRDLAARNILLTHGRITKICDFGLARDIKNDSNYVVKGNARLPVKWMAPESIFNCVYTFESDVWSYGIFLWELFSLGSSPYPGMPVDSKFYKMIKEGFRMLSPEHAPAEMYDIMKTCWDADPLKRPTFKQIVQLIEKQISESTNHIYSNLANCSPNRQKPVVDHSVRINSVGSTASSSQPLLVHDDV

IC50 of Kinase/IC50 of Yes (Abl; Abl relative to Yes): 10.0
% inhibition (Abl; Abl, 1000 nM, 1 µM): 11%
% inhibition (Abl; Abl, 5000 nM): 26%
% inhibition (Abl; Abl, 5000 nM, 5 µM): 26%
IC50 (Abl; Abl, error is standard deviation): > 10 µM
inhibition at 1 µM (Alk; 1000 nM): 6%
% inhibition (Alk; 5000 nM, 5 µM): 18%
inhibition at 1 µM (Hck; 1000 nM): 24%
inhibition at 5 µM (Hck; 5000 nM): 40%
% inhibition (pdgfr-b; 1000 nM, 1 µM): 4%
inhibition at 5 µM (pdgfr-b; 5000 nM): 13%
IC50 of Kinase/IC50 of Yes (Ret; Ret relative to Yes): 2.07
% inhibition (Ret; Ret, 1000 nM, 1 µM): 35%
% inhibition (Ret; Ret, 5000 nM): 73%
% inhibition (Ret; Ret, 5000 nM, 5 µM): 73%
IC50 (Ret; Ret, error is standard deviation): 1.86 µM
% inhibition (Her-2; 1000 nM, 1 µM): −2%
inhibition at 5 µM (Her-2; 5000 nM): 0%
inhibition at 1 µM (Fgr; 1000 nM): 45%
inhibition at 5 µM (Fgr; 5000 nM): 77%
inhibition at 1 µM (Fyn; 1000 nM): 19%
inhibition at 5 µM (Fyn; 5000 nM): 44%
IC50 of Kinase/IC50 of Yes (Src kinase; Src relative to Yes): 6.22
IC50 (Src kinase; Src, error is standard deviation): 5.57 µM
inhibition at 1 µM (pdgfr-a; 1000 nM): 3%
inhibition at 5 µM (pdgfr-a; 5000 nM): 8%
% inhibition (Kit; 1000 nM, 1 µM): 5%
inhibition at 5 µM (Kit; 5000 nM): 26%
inhibition at 1 µM (BTK; 1000 nM): 10%
% inhibition (BTK; 5000 nM, 5 µM): 29%
S(40%) ([1]; 1000 nM): 0.11
S(40%) ([1]; 5000 nM): 0.44
augmentation of 5's inherent selectivity ([1]; Ret over Abl and Src): 4 fold
IC50 of Kinase/IC50 of Yes (EGFR; EGFR relative to Yes): >10.0
% inhibition (EGFR; EGFR, 1000 nM, 1 µM): −4%
% inhibition (EGFR; EGFR, 5000 nM, 5 µM): 0%
IC50 (EGFR; EGFR, error is standard deviation): > 10 µM
inhibition at 1 µM (Lyn; 1000 nM): 19%
inhibition at 5 µM (Lyn; 5000 nM): 57%
inhibition at 1 µM (CSK; 1000 nM): 21%
inhibition at 5 µM (CSK; 5000 nM): 35%
inhibition at 1 µM (Lck; 1000 nM): 23%
inhibition at 5 µM (Lck; 5000 nM): 51%
% inhibition (Blk; 1000 nM, 1 µM): 3%
inhibition at 5 µM (Blk; 5000 nM): 32%
IC50 of Kinase/IC50 of Yes (Yes; Yes relative to Yes): 1
inhibition at 1 µM (Yes; Yes, 1000 nM, average of 2 runs): 53%
inhibition at 5 µM (Yes; Yes, 5000 nM, average of 2 runs): 79%
IC50 (Yes; Yes, error is standard deviation): 0.895 µM
SMILES: COc1ccc(Cl)c(-c2c(Cl)n(C(C)(C)C)c3ncnc(N)c23)c1 (single isomer, unassigned) [2e-(R), 7-(tert-butyl)-6-chloro-5-(2-chloro-5-methoxyphenyl)-7H-pyrrolo[2,3d]pyrimidin-4-amine]
